“Also recorded” adds a separate entry of the source. Read-outs that look alike come from different tables or passages of the source.
What was measured:
Human Aβ(1–42) = molecular target: T1, Human Aβ(1–42) (Homo sapiens, UniProt P05067); test: Aβ peptide oligomerization reaction with capture ELISA for Aβ oligomer detection; format: biochemical; conditions: for inhibition at 1 µM: read-out: Inhibitory activity (Aβ oligomerization)
T1 construct: Human Aβ(1–42) was purchased from AnaSpec (San Jose, CA); purchased AnaSpec (San Jose, CA)
T1 sequence (P05067 672-713 limits assumed): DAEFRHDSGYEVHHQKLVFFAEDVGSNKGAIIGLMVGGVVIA

Murine microglial cells = test: Wst-1 assay (cytotoxicity); format: cell-based; conditions: 24 h
[1] = tested on: low-molecular weight Aβ oligomers; conditions: in vitro; read-out: IC50, formation of low-molecular weight Aβ oligomers; cited from earlier work
[2] = tested on: high-molecular weight fibrils (Aβ); conditions: in vitro; read-out: IC50, formation of high-molecular weight fibrils; cited from earlier work
[3] = tested on: Aβ deposition in aged APP(Swedish)-transgenic mice (Tg2576); conditions: dietary supplement; cited from earlier work
Aβ aggregation = conditions: saturation of the 7-carbon linker; cited from earlier work
[4] = 1 µM compound, 200 nM monomeric Aβ peptide, 37°C, 24 h, capture ELISA

| SMILES | inhibition at 1 µM (Human Aβ(1–42); [4]) | other results |
| --- | --- | --- |
| COc1ccc(/C=C/C(=O)/C=C(O)/C=C/c2ccc(OC)c(O)c2)cc1O [compound 1] | 80% | – |
| COc1ccc(/C=C/C(=O)/C=C(O)/C=C/c2ccc(OC)c(OC)c2)cc1OC [compound 2] | – | IC50 (Human Aβ(1–42)): 150 nM; Improvement of Aβ aggregation inhibitory activity over curcumin (Human Aβ(1–42); ratio of IC50 values versus curcumin): 6-7 fold; inhibition at 1 µM (Human Aβ(1–42)): 75%; LD50 value relative to that of curcumin (Murine microglial cells; printed as fold lower than curcumin): approximately 2 fold |
| COc1cc(/C=C/C(=O)/C(C)=C(O)/C=C/c2ccc(O)c(OC)c2)ccc1O [compound 3] | 66% | – |
| COc1cc(/C=C/C(=O)/C(Cc2ccccc2)=C(O)/C=C/c2ccc(O)c(OC)c2)ccc1O [compound 4] | 51% | – |
| COc1cccc(/C=C/C(=O)/C=C(O)/C=C/c2cccc(OC)c2OC)c1OC [compound 7] | 45% | – |
| O=C(/C=C/c1ccc(O)c(O)c1)/C=C/c1ccc(O)c(O)c1 [compound 8] | 74% | – |
| COC(=O)c1ccc(/C=C/C(=O)/C=C/c2ccc(C(=O)OC)cc2)cc1 [compound 9] | 66% | – |
| O=C(/C=C/c1ccccc1)/C=C/c1ccccc1 [compound 10] | 65% | – |
| COc1cc(/C=C/C(=O)/C=C/c2ccccc2)ccc1O [compound 11] | 63% | – |
| COc1ccccc1/C=C/C(=O)/C=C/c1ccccc1OC [compound 12] | 63% | – |
| Cc1ccc(/C=C/C(=O)/C=C/c2ccc(C)cc2)cc1 [compound 13] | 62% | – |
| COc1cc(/C=C/C(=O)/C=C/c2ccc(O)c(OC)c2)ccc1O [compound 14] | – | inhibition at 1 µM (Human Aβ(1–42)): 58% |
| O=C(/C=C/c1cccc(Cl)c1)/C=C/c1cccc(Cl)c1 [compound 15] | 58% | – |
| COc1cccc(/C=C/C(=O)/C=C/c2cccc(OC)c2)c1 [compound 16] | 56% | – |
| O=C(/C=C/c1cccc(C(F)(F)F)c1)/C=C/c1cccc(C(F)(F)F)c1 [compound 17] | 55% | – |
| CN(C)c1ccc(/C=C/C(=O)/C=C/c2ccc(N(C)C)cc2)cc1 [compound 18] | 54% | – |
| COc1cc(/C=C/C(=O)/C=C/c2ccc(OC(C)=O)c(OC)c2)ccc1OC(C)=O [compound 19] | 53% | – |
| O=C(/C=C/c1ccc(O)cc1)/C=C/c1ccc(O)cc1 [compound 20] | 49% | – |
| COc1cc(/C=C/C(=O)CC(=O)/C=C/c2ccc(O)c(OC)c2)ccc1O [curcumin] | – | inhibition at 1 µM (Human Aβ(1–42)): 50%; LD50 value (cytotoxicity, Wst-1) (Murine microglial cells): 40 µM; IC50 [1]: 1000 nM; IC50 [2]: 800 nM; Effect on Aβ deposition [3]: reduced Aβ deposition; also recorded: significantly lowered Aβ deposition |
| COc1cc(CCC(=O)CC(=O)CCc2ccc(O)c(OC)c2)ccc1O [tetrahydrocurcumin] | – | Aβ aggregation inhibitory activity (Aβ aggregation): abolished Aβ aggregation inhibitory activity |

— PMC3307704 (PLoS ONE, 2012)
